This assay has as its target T1, StOFOR2 (Sulfurisphaera tokodaii, UniProt Q96XT2+Q96XT4).
T1 construct: gene ST2435; recombinant in E. coli C43(DE3), genes from S. tokodaii genomic DNA in pOFORAB (pET-17b based), untagged; (ab)2 heterotetramer with TPP, Mg2+, [4Fe-4S]
Briefly: X-ray crystal structure, […] Å. To be noted: crystal soaked with 50 mM pyruvate for 30 min; active site, unreacted pyruvate. The class given is binding.

Here are results for one compound from paper PMC5020499, “Crystal structures of archaeal 2-oxoacid:ferredoxin oxidoreductases from Sulfolobus tokodaii” (Scientific Reports, 2016).

SMILES strings stand for the structures.

T1 sequence (Q96XT2 whole entry): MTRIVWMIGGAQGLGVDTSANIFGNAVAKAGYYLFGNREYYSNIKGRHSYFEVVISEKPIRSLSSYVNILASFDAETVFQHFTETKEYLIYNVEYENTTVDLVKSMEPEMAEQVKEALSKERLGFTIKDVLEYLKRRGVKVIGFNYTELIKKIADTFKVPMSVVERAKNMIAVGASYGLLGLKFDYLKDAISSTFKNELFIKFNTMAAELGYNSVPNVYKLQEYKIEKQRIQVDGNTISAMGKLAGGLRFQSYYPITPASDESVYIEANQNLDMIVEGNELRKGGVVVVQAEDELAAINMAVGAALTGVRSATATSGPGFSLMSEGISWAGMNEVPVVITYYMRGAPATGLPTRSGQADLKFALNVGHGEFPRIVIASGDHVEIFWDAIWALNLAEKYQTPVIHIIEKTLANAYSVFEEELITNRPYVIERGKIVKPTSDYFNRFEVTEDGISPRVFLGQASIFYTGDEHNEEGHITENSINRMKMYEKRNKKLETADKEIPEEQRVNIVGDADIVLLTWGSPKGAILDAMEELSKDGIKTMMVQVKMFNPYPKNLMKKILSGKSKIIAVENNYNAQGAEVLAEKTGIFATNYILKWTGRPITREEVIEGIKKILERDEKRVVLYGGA
T1 sequence (Q96XT4 whole entry): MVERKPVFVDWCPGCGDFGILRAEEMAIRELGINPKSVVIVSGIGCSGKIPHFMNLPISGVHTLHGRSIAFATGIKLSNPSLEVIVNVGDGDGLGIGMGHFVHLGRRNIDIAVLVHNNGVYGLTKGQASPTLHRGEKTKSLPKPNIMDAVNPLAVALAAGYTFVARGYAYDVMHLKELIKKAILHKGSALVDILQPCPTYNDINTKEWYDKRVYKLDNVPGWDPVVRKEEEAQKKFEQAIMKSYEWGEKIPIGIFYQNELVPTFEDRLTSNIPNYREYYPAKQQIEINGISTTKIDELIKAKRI

For the compound `CC(=O)C(=O)O` [pyruvate], the “X-ray crystal structure, 2.2 Å” value is “we observed a separate density peak corresponding to the approximate size and shape of an unreacted pyruvate”.
